Assay results taken from patent US10125123B2, “Small molecule IRE1-α inhibitors” (Cornell University, priority 2016, dated 2018).

These compounds were tested against T1, IRE1α (Homo sapiens, UniProt O75460) (assay: In vitro FRET assay (XBP1 RNA probe cleavage by IRE1α)). Conditions: biochemical FRET assay, 2 nM IRE1α.
T1 construct: purchased SignalChem
Experimental: In vitro FRET assay was performed to evaluate the ability of select compounds to inhibit IRE1, the results of which are summarized in the following table.
To perform the in vitro FRET assay, 1× complete assay buffer (CAB; […], 50 mM sodium citrate pH 7.15, 1 mM magnesium acetate, 0.02% Tween 20) was used to dilute SignalChem IRE1α in protein to a final concentration of 2 nM. Selected compounds were serially diluted with DMSO in a non-binding black 384-well plate for a total of 15 μl in each well. 2 μl of the serially diluted compound or DMSO control were then added to new wells containing 98 μl of 1×CAB, for a total volume of 100 μl, 10 μl of which were then transferred to wells of a new plate. 5 μl of the diluted IRE1α was then added to each well. 5 μl of a […] XBP1 RNA probe was then added to each well. Fluorescence was then read over 30 minutes in kinetic mode (485/515 nm). Two RNA probes were used, XBP1 wildtype (CAUGUCCGCAGCACAUG; SEQ ID NO: 1) which is able to be spliced by active IRE1α or XBP1 mutant (CAUGUCCCCAGCACAUG; SEQ ID NO: 2) which is unable to be spliced. Each probe contained a 5′ 6-FAM modification and a 3′ IOWA Black FQ modification. […]

T1 sequence (O75460 19-977): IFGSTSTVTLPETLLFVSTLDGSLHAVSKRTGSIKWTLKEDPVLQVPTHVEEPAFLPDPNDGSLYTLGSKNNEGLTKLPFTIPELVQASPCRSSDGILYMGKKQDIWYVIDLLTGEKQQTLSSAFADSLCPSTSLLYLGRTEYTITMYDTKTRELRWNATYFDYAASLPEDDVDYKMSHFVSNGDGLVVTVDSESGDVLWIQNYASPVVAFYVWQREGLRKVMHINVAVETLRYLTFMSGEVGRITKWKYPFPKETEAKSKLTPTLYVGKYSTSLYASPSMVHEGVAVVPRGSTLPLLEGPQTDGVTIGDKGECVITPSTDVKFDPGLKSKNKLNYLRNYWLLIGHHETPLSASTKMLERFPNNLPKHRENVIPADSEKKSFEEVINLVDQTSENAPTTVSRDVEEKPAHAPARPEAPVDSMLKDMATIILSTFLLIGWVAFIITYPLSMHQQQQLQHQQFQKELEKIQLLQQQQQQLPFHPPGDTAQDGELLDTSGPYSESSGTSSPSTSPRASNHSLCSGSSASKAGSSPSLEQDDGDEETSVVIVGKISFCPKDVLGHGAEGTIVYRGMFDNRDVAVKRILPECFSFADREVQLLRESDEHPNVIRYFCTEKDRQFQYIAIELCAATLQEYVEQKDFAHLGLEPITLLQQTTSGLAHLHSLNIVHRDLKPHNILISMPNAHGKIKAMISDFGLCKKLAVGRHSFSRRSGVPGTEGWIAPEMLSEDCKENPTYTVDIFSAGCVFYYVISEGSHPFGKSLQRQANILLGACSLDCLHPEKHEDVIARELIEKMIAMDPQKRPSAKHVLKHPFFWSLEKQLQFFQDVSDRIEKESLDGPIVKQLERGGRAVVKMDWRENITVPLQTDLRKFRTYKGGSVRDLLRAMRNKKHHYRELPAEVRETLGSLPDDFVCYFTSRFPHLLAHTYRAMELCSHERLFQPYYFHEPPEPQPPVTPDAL

SMILES	EC50
CC1CCCCN1Cc1ccc(NC(=O)Nc2cc(-c3ccc4ccncc4c3)n(C)n2)cc1C(F)(F)F (stereo not drawn) [Compound 43, 1-(5-(isoquinolin-7-yl)-1-methyl-1H-pyrazol-3-yl)-3-(4-((2-methylpiperidin-1-yl)methyl)-3-(trifluoromethyl)phenyl)urea]	> 100 µM
CN1CCN(Cc2ccc(Nc3c(Nc4cc(-c5ccc6ccncc6c5)n(C)n4)c(=O)c3=O)cc2C(F)(F)F)CC1 [Compound 73, 3-((5-(isoquinolin-7-yl)-1-methyl-1H-pyrazol-3-yl)amino)-4-((4-((4-methylpiperazin-1-yl)methyl)-3-(trifluoromethyl)phenyl)amino) cyclobut-3-ene-1,2-dione]	≤ 5 µM
CN1CCN(Cc2ccc(NC(=O)Nc3cc(-c4ccc5ccncc5c4)n(C)n3)cc2)CC1 [Compound 47, 1-(5-(isoquinolin-7-yl)-1-methyl-1H-pyrazol-3-yl)-3-(4-((4-methylpiperazin-1-yl)methyl)phenyl)urea]	> 100 µM
CN1CCC(Cc2ccc(NC(=O)Cc3cc(-c4ccc5nc(N)ncc5c4)n(C)n3)cc2C(F)(F)F)CC1 [Compound 49, 2-(5-(2-aminoquinazolin-6-yl)-1-methyl-1H-pyrazol-3-yl)-N-(4-((1-methylpiperidin-4-yl)methyl)-3-(trifluoromethyl)phenyl)acetamide]	> 100 µM
Cn1nc(NC(=O)c2cccc(-n3cccn3)c2)cc1-c1ccc2ccncc2c1 [Compound 20, N-(5-(isoquinolin-7-yl)-1-methyl-1H-pyrazol-3-yl)-3-(1H-pyrazol-1-yl)benzamide]	> 100 µM
Cn1nc(NC(=O)NCc2ccccc2)cc1-c1ccc2ccncc2c1 [Compound 63, 1-benzyl-3-(5-(isoquinolin-7-yl)-1-methyl-1H-pyrazol-3-yl)urea]	> 100 µM
Cn1nc(NS(=O)(=O)c2cccc(C(F)(F)F)c2)cc1-c1ccc2ccncc2c1 [Compound 72, N-(5-(isoquinolin-7-yl)-1-methyl-1H-pyrazol-3-yl)-3-(trifluoromethyl)benzene-sulfonamide]	50 to 100 µM
CN1CCN(Cc2ccc(NC(=O)Nc3n[nH]c4cc(-c5cnc(N)nc5)ccc34)cc2C(F)(F)F)CC1 [Compound 11, 1-(6-(2-aminopyrimidin-5-yl)-1H indazol-3-yl)-3-(4-((4-methylpiperazin-1-yl)methyl)-3-(trifluoromethyl)phenyl)urea]	5 to 50 µM
Cn1nc(NC(=O)Nc2ccc(CN3CCN(CCO)CC3)c(C(F)(F)F)c2)cc1-c1ccc2ccncc2c1 [Compound 36, 1-(4-((4-(2-hydroxyethyl)piperazin-1-yl)methyl)-3-(trifluoromethyl)phenyl)-3-(5-(isoquinolin-7-yl)-1-methyl-1H-pyrazol-3-yl)urea]	≤ 5 µM
CN1CCN(Cc2ccc(NC(=O)Nc3nn(C)c4cc(-c5cnc(N)nc5)ccc34)cc2C(F)(F)F)CC1 [Compound 9, 1-(6-(2-aminopyrimidin-5-yl)-1-methyl-1H-indazol-3-yl)-3-(4-((4-methylpiperazin-1-yl)methyl)-3-(trifluoromethyl)phenyl)urea]	≤ 5 µM
Cn1nc(NC(=O)Nc2ccccc2F)cc1-c1ccc2ccncc2c1 [Compound 69, 1-(2-fluorophenyl)-3-(5-(isoquinolin-7-yl)-1-methyl-1H-pyrazol-3-yl)urea]	> 100 µM
O=C(C#Cc1ccccc1)Nc1ccc2oc(-c3cccnc3)nc2c1 [Compound 58, 3-phenyl-N-(2-(pyridin-3-yl)benzo[d]oxazol-5-yl)propiolamide]	> 100 µM
CN1CCN(Cc2ccc(NC(=O)Nc3cc(-c4ccc(-c5cccn6ccnc56)cc4)n(C)n3)cc2C(F)(F)F)CC1 [Compound 54, 1-(5-(4-(imidazo[1,2-a]pyridin-8-yl)phenyl)-1-methyl-1H-pyrazol-3-yl)-3-(4-((4-methylpiperazin-1-yl)methyl)-3-(trifluoromethyl)phenyl)urea]	≤ 5 µM
CC(C)N1CCN(Cc2ccc(NC(=O)Nc3cc(-c4ccc5ccncc5c4)n(C)n3)cc2C(F)(F)F)CC1 [Compound 37, 1-(4-((4-isopropylpiperazin-1-yl)methyl)-3-(trifluoromethyl)phenyl)-3-(5-(isoquinolin-7-yl)-1-methyl-1H pyrazol-3-yl)urea]	≤ 5 µM
CN1CCN(Cc2ccc(NC(=O)Nc3cc(-c4ccc5ccncc5c4)n(C)n3)cc2Br)CC1 [Compound 44, 1-(3-bromo-4-((4-methylpiperazin-1-yl)methyl)phenyl)-3-(5-(isoquinolin-7-yl)-1-methyl-1H-pyrazol-3-yl)urea]	5 to 50 µM

The next lines start with the values.

EC50	SMILES
50 to 100 µM	O=C(Nc1ccc(CN2CCN(Cc3ccccc3)CC2)c(C(F)(F)F)c1)Nc1ccc2oc(-c3cccnc3)nc2c1 [Compound 14, 1-(4-((4-benzylpiperazin-1-yl)methyl)-3-(trifluoromethyl)phenyl)-3-(2-(pyridin-3-yl)benzo[d]oxazol-5-yl)urea]
5 to 50 µM	CN1CCN(Cc2ccc(NC(=O)Nc3cc(-c4ccc5ccc(O)nc5c4)n(C)n3)cc2C(F)(F)F)CC1 [Compound 23, 1-(5-(2-hydroxyquinolin-7-yl)-1-methyl-1H-pyrazol-3-y1)-3-(4-((4-methylpiperazin-1-yl)methyl)-3-(trifluoromethyl)phenyl)urea]
> 100 µM	CN1CCN(CCc2cccc(NC(=O)Nc3cc(-c4ccc5ccncc5c4)n(C)n3)c2)CC1 [Compound 19, 1-(5-(isoquinolin-7-yl)-1-methyl-1H-pyrazol-3-yl)-3-(3-(2-(4-methylpiperazin-1-yl)ethyl)phenyl)urea]
> 100 µM	Cn1nc(NC(=O)Nc2ccc(CN3CCCCCC3)c(C(F)(F)F)c2)cc1-c1ccc2ccncc2c1 [Compound 38, 1-(4-(azepan-1-ylmethyl)-3-(trifluoromethyl)phenyl)-3-(5-(isoquinolin-7-yl)-1-methyl-1H-pyrazol-3-yl)urea]
≤ 5 µM	CN1CCN(Cc2ccc(NC(=O)Nc3ccc4oc(-c5cnn6ccccc56)nc4c3)cc2C(F)(F)F)CC1 [Compound 16, 1-(4-((4-methylpiperazin-1-yl)methyl)-3-(trifluoromethyl)phenyl)-3-(2-(pyrazolo[1,5-a]pyridin-3-yl)benzo[d]oxazol-5-yl)urea]
5 to 50 µM	CN1CCN(Cc2ccc(NC(=O)Cc3cc(-c4ccc5nc(N)ncc5c4)n(C)n3)cc2C(F)(F)F)CC1 [Compound 33, 2-(5-(2-aminoquinazolin-6-yl)-1-methyl-1H-pyrazol-3-yl)-N-(4-((4-methylpiperazin-1-yl)methyl)-3-(trifluoromethyl)phenyl)acetamide]
≤ 5 µM	CN1CCN(Cc2ccc(NC(=O)Nc3cc(-c4ccc5cc(N)ncc5c4)n(C)n3)cc2C(F)(F)F)CC1 [Compound 26, 1-(5-(3-aminoisoquinolin-7-yl)-1-methyl-1H-pyrazol-3-yl)-3-(4-((4-methylpiperazin-1-yl)methyl)-3-(trifluoromethyl)phenyl)urea]
> 100 µM	COc1ccccc1NC(=O)Nc1cc(-c2ccc3ccncc3c2)n(C)n1 [Compound 65, 1-(5-(isoquinolin-7-yl)-1-methyl-1H-pyrazol-3-yl)-3-(2-methoxyphenyl)urea]
≤ 5 µM	CN1CCN(Cc2ccc(Nc3c(Nc4cc(-c5ccc6nc(N)ncc6c5)n(C)n4)c(=O)c3=O)cc2C(F)(F)F)CC1 [Compound 75, 3-((5-(2-aminoquinazolin-6-yl)-1-methyl-1H-pyrazol-3-yl)amino)-4-((4-((4-methylpiperazin-1-yl)methyl)-3-(trifluoromethyl)phenyl)amino) cyclobut-3-ene-1,2-dione]
> 100 µM	CN1CCN(Cc2ccc(NC(=O)Nc3cc(-c4ccn5ccnc5c4)n(C)n3)cc2C(F)(F)F)CC1 [Compound 4, 1-(5-(imidazo[1,2-a]pyridin-7-yl)-1-methyl-1H-pyrazol-3-yl)-3-(4-((4-methylpiperazin-1-yl)methyl)-3-(trifluoromethyl)phenyl)urea]
> 100 µM	CN1CCN(Cc2ccc(NC(=O)Cc3cc(-c4ccc5cc(N)ncc5c4)n(C)n3)cc2C(F)(F)F)CC1 [Compound 32, 2-(5-(3-aminoisoquinolin-7-yl)-1-methyl-1H-pyrazol-3-yl)-N-(4-((4-methylpiperazin-1-yl)methyl)-3-(trifluoromethyl)phenyl)acetamide]
5 to 50 µM	CN1CCN(Cc2ccc(NC(=O)Nc3cc(-c4ccc5cnoc5c4)n(C)n3)cc2C(F)(F)F)CC1 [Compound 2, 1-(5-(benzo[d]isoxazol-6-yl)-1-methyl-1H-pyrazol-3-yl)-3-(4-((4-methylpiperazin-1-yl)methyl)-3-(trifluoromethyl)phenyl)urea]
> 100 µM	Cn1nc(NC(=O)Nc2ccccc2)cc1-c1ccc2ccncc2c1 [Compound 64, 1-(5-(isoquinolin-7-yl)-1-methyl-1H-pyrazol-3-yl)-3-phenylurea]
> 100 µM	Cn1nc(NC(=O)c2ccccc2)cc1-c1ccc2cc(N)ncc2c1 [Compound 67, N-(5-(3-aminoisoquinolin-7-yl)-1-methyl-1H-pyrazol-3-yl)benzamide]
≤ 5 µM	Cc1nc(NC(=O)Nc2ccc(CN3CCN(C)CC3)c(C(F)(F)F)c2)[nH]c1-c1ccc2ccncc2c1 [Compound 46, 1-(5-(isoquinolin-7-yl)-4-methyl-4H-imidazol-2-yl)-3-(4-((4-methylpiperazin-1-yl)methyl)-3-(trifluoromethyl)phenyl)urea]
